From US11702409B2, “Pyrazolyl derivatives useful as anti-cancer agents” (NOVARTIS AG, priority 2019, dated 2023)

Target: KRasG12C (M1-K169, biotinylated on the N-terminus) (Homo sapiens (Human), UniProt P01116, G12C)
Assay: Covalent competition assay (scintillation proximity assay, competition with radiolabeled covalent probe Compound B)
Assay type: binding
Conditions: in vitro KRASG12C activity; 10 nM KRasG12C:GDP, 25 nM radio-ligand and 475 nM unlabelled ligand, incubated 2 hours; read-out: Covalent Competition Assay IC50
Procedure: The cells were lysed by 4 passages through an Avestin Emulsiflex at about 20000 psi and insoluble debris removed by centrifugation and filtered through a 0.45 μm Durapore membrane (Millipore). […] The protein in the flow through was subjected to a final polishing step on a HiLoad 16/60 Superdex 200 prep grade size-exclusion column pre-equilibrated with SEC-buffer (20 mM HEPES pH 7.4, 150 mM NaCl, 5 mM MgCl2, 1 μM GDP).
A scintillation proximity assay (SPA) was used to determine the potency of the compounds. This assay measures the ability of the test compound to compete with the radiolabeled covalent probe for binding to and covalently modify KRASG12C.
A serial dilution of the compounds to be tested is mixed with a fixed concentration of the radiolabeled covalent probe before incubation with KRASG12C:GDP as described below.
The reaction was started by addition of KRasG12C (M1-K169, biotinylated on the N-terminus) to the compounds and incubated for 2 hours with continuous agitation allowing for full modification of KRasG12C with probe or test compounds. […] The assay buffer contained 20 mM Tris-HCl pH 7.5 (Invitrogen), 150 mM NaCl (Sigma Aldrich), 0.1 mM MgCl2 (Sigma Aldrich), and 0.01% Tween-20 (Sigma Aldrich).
Evaluation was carried out using assay data analysis software (such as the standard Novartis in-house Helios software application, Novartis Institutes for BioMedical Research, unpublished) using the methods described in Formenko et al., Robust Regression for high-throughput screening.
Evaluation can also be carried out using commercially available software which is designed to derive IC50 values using 4-parameter fits (e.g. GraphPad Prism, XL fit).

Row | Structure (SMILES) | IC50 [nM]
1 | C=CC(=O)N1CC2(CC(n3nc(-c4ccccn4)c(-c4c(Cl)c(C)cc5[nH]ncc45)c3C)C2)C1 (single isomer, unassigned) [Example 46a, 1-(6-(4-(5-chloro-6-methyl-1H-indazol-4-yl)-5-methyl-3-(pyridin-2-yl)-1H-pyrazol-1-yl)-2-azaspiro[3.3]heptan-2-yl)prop-2-en-1-one] | 423
2 | C=CC(=O)N1CC2(CC(n3nc(-c4cccnc4)c(-c4c(Cl)ccc5[nH]ncc45)c3C)C2)C1 (single isomer, unassigned) [Example 19a] | 1900
3 | C=CC(=O)N1CC2(CC(n3nc(-c4cnc(OC)nc4)c(-c4c(Cl)ccc5[nH]ncc45)c3C)C2)C1 (single isomer, unassigned) [Example 90a] | 3500
4 | C=CC(=O)N1CC2(CC(n3nc(-c4ccc(N5CCN(C)C5=O)cc4)c(-c4c(Cl)c(C)cc5[nH]ncc45)c3C)C2)C1 (single isomer, unassigned) [Example 13a] | 18
5 | C=CC(=O)N1CC2(CC(n3nc(-c4cccnc4)c(-c4c(Cl)c(Cl)cc5[nH]ncc45)c3C(F)F)C2)C1 (single isomer, unassigned) [Example 85b] | 21600
6 | C=CC(=O)N1CC2(CC(n3nc(-c4ccc5c(c4)CCN5CCOC)c(-c4c(Cl)c(C)cc5[nH]ncc45)c3C)C2)C1 (single isomer, unassigned) [Example 44a] | 19
7 | C=CC(=O)N1CC2(CC(n3nc(-c4ccc(C(=O)N(C)CC(C)(C)O)cc4)c(-c4c(Cl)c(C)cc5[nH]ncc45)c3C)C2)C1 (single isomer, unassigned) [Example 67b] | 12100
8 | C=CC(=O)N1CC2(CC(n3nc(-c4ccc5nn(CCN(C)C)cc5c4)c(-c4c(Cl)c(C)cc5[nH]ncc45)c3C)C2)C1 (single isomer, unassigned) [Example 16b] | 23400
9 | C=CC(=O)N1CC2(CC(n3nc(-c4cscn4)c(-c4c(Cl)c(C)cc5[nH]ncc45)c3C)C2)C1 (single isomer, unassigned) [Example 51a, 1-(6-(4-(5-chloro-6-methyl-1H-indazol-4-yl)-5-methyl-3-(thiazol-4-yl)-1H-pyrazol-1-yl)-2-azaspiro[3.3]heptan-2-yl)prop-2-en-1-one] | 465
10 | C=CC(=O)N1CC2(CC(n3nc(-c4ccnn4CC4CC4)c(-c4c(Cl)c(C)cc5[nH]ncc45)c3C)C2)C1 (single isomer, unassigned) [Example 45a, 1-(6-(4-(5-chloro-6-methyl-1H-indazol-4-yl)-2′-(cyclopropylmethyl)-5-methyl-1H,2′H-[3,3′-bipyrazol]-1-yl)-2-azaspiro[3.3]heptan-2-yl)prop-2-en-1-one] | 235
11 | C=CC(=O)N1CC2(CC(n3nc(-c4ccc(OCCOC)cc4F)c(-c4c(Cl)c(C)cc5[nH]ncc45)c3C)C2)C1 (single isomer, unassigned) [Example 60a, 1-(6-{(4M)-4-(5-Chloro-6-methyl-1H-indazol-4-yl)-3-[2-fluoro-4-(2-methoxyethoxy)phenyl]-5-methyl-1H-pryazol-1-yl}-2-azaspiro[3.3]heptan-2-yl)prop2-en-1-one] | 51
12 | C=CC(=O)N1CC2(CC(n3nc(-c4cccnc4C)c(-c4c(Cl)c(C)cc5[nH]ncc45)c3C(F)F)C2)C1 (single isomer, unassigned) [Example 84a, 1-(6-(4-(5-Chloro-6-methyl-1H-indazol-4-yl)-5-(difluoromethyl)-3-(2-methylpyridin-3-yl)-1H-pyrazol-1-yl)-2-azaspiro[3.3]heptan-2-yl)prop-2-en-1-one] | 536
13 | C=CC(=O)N1CC2(CC(n3nc(-c4cccnc4C)c(-c4c(Cl)ccc5[nH]ncc45)c3C)C2)C1 (single isomer, unassigned) [Example 89a] | 2300
14 | C=CC(=O)N1CC2(CC(n3nc(-c4ccc5cnccc5c4)c(-c4c(Cl)c(C)cc5[nH]ncc45)c3C)C2)C1 (single isomer, unassigned) [Example 25a] | 41
15 | C=CC(=O)N1CC2(CC(n3nc(-c4ccc5nn(CCN6CC(OC)C6)cc5c4)c(-c4c(Cl)c(C)cc5[nH]ncc45)c3C)C2)C1 (single isomer, unassigned) [Example 82b] | 712
16 | C=CC(=O)N1CC2(CC(n3nc(-c4ccc5c(c4)CCN5C(C)=O)c(-c4c(Cl)c(C)cc5[nH]ncc45)c3C)C2)C1 (single isomer, unassigned) [Example 22b] | > 50000
17 | C=CC(=O)N1CC2(CC(n3nc(-c4cccnc4C)c(-c4c(Cl)ccc5[nH]ncc45)c3C)C2)C1 (single isomer, unassigned) [Example 89b] | 25500
18 | C=CC(=O)N1CC2(CC(n3nc(-c4ccc5nc(NC)ncc5c4)c(-c4c(Cl)c(C)cc5[nH]ncc45)c3C)C2)C1 (single isomer, unassigned) [Example 40a] | 99

Row | Structure (SMILES) | IC50 [nM]
19 | C=CC(=O)N1CC2(CC(n3nc(-c4ccc5c(c4)C(=O)OC5)c(-c4c(Cl)c(C)cc5[nH]ncc45)c3C)C2)C1 (single isomer, unassigned) [Example 54a] | 360
20 | C=CC(=O)N1CC2(CC(n3nc(-c4cccc(=O)n4C)c(-c4c(Cl)ccc5[nH]ncc45)c3C)C2)C1 (single isomer, unassigned) [Example 91b] | 25300
21 | C=CC(=O)N1CC2(CC(n3nc(-c4cccnc4)c(-c4c(Cl)c(C)cc5[nH]ncc45)c3C(F)F)C2)C1 (single isomer, unassigned) [Example 87a] | 806
22 | C=CC(=O)N1CC2(CC(n3nc(-c4cccnc4)c(-c4c(Cl)c(C)cc5[nH]ncc45)c3CC#N)C2)C1 [Example 88] | 13500
23 | C=CC(=O)N1CC2(CC(n3nc(-c4ccccc4)c(-c4c(Cl)c(C)cc5[nH]nc(N)c45)c3C)C2)C1 (single isomer, unassigned) [Example 70b, 1-(6-(4-(3-amino-5-chloro-6-methyl-1H-indazol-4-yl)-5-methyl-3-phenyl-1H-pyrazol-1-yl)-2-azaspiro[3.3]heptan-2-yl)prop-2-en-1-one] | 2100
24 | C=CC(=O)N1CC2(CC(n3nc(-c4ccc5c(cnn5C)c4)c(-c4cc(O)ccc4Cl)c3C)C2)C1 [Example 94, 1-(6-(4-(2-chloro-5-hydroxyphenyl)-5-methyl-3-(1-methyl-1H-indazol-5-yl)-1H-pyrazol-1-yl)-2-azaspiro[3.3]heptan-2-yl)prop-2-en-1-one] | 2300
25 | C=CC(=O)N1CC2(CC(n3nc(-c4ccnc(C#N)c4)c(-c4c(Cl)c(C)cc5[nH]ncc45)c3C)C2)C1 (single isomer, unassigned) [Example 9b] | > 50000
26 | C=CC(=O)N1CC2(CC(n3nc(-c4ccc(C(=O)N(C)CC(C)(C)O)cc4)c(-c4c(Cl)c(C)cc5[nH]ncc45)c3C)C2)C1 (single isomer, unassigned) [Example 67a] | 202
27 | C=CC(=O)N1CC2(CC(n3nc(C4=CN5CC(C)(C)N=C5C(F)=C4)c(-c4c(Cl)c(C)cc5[nH]ncc45)c3C)C2)C1 (single isomer, unassigned) [Example 73b] | > 50000
28 | C=CC(=O)N1CC2(CC(n3nc(-c4ccc5cnccc5c4)c(-c4c(Cl)c(C)cc5[nH]ncc45)c3C)C2)C1 (single isomer, unassigned) [Example 25b] | 7800
29 | C=CC(=O)N1CC2(CC(n3nc(-c4cnn(S(=O)(=O)C5CC5)c4)c(-c4c(Cl)c(C)cc5[nH]ncc45)c3C)C2)C1 (single isomer, unassigned) [Example 36a] | 516
30 | C=CC(=O)N1CC2(CC(n3nc(-c4ccc5c(cnn5CCN5CCOCC5)c4)c(-c4c(Cl)c(C)cc5[nH]ncc45)c3C)C2)C1 (single isomer, unassigned) [Example 17a] | 13
31 | C=CC(=O)N1CC2(CC(n3nc(-c4ccc5nn(CC(C)(C)O)cc5c4)c(-c4c(Cl)c(C)cc5[nH]ncc45)c3C)C2)C1 (single isomer, unassigned) [Example 42b] | 1200
32 | C=CC(=O)N1CC2(CC(n3nc(-c4ccnn4CC4CC4)c(-c4c(Cl)c(C)cc5[nH]ncc45)c3C)C2)C1 (single isomer, unassigned) [Example 45b, 1-(6-(4-(5-chloro-6-methyl-1H-indazol-4-yl)-2′-(cyclopropylmethyl)-5-methyl-1H,2′H-[3,3′-bipyrazol]-1-yl)-2-azaspiro[3.3]heptan-2-yl)prop-2-en-1-one] | > 50000
33 | C=CC(=O)N1CC2(CC(n3nc(-c4cnc5c(c4)ncn5C)c(-c4c(Cl)c(C)cc5[nH]ncc45)c3C)C2)C1 (single isomer, unassigned) [Example 38a] | 487
34 | C=CC(=O)N1CC2(CC(n3nc(-c4ccccc4)c(-c4c(Cl)c(C)cc5[nH]nc(N)c45)c3C)C2)C1 (single isomer, unassigned) [Example 70a, 1-{6-[(4M)-4-(3-Amino-5-chloro-6-methyl-1H-indazol-4-yl)-5-methyl-3-phenyl-1H-pyrazol-1-yl]-2-azaspiro[3.3]heptan-2-yl}prop-2-en-1-one] | 30
35 | C=CC(=O)N1CC2(CC(n3nc(-c4ccc5nn(CCN(C)C)cc5c4)c(-c4c(Cl)c(C)cc5[nH]ncc45)c3C)C2)C1 (single isomer, unassigned) [Example 16a] | 11
